# Patent US7435837B2, “Dihydrobenzofuranyl alkanamine derivatives and methods for using same” (Wyeth, priority 2003, dated 2008)
# Counter-ions that a name gives are not always drawn.
row,melting point,SMILES
1,230 °C (dec.),"NCC1Cc2cc(Cl)cc(-c3ccsc3)c2O1 (racemic) (as salt: hydrochloride) [Example 90, (±)-(5-chloro-7-thien-3-yl-2,3-dihydro-1-benzofuran-2-yl)methylamine]"
2,254 to 257 °C,"NCC1Cc2c(F)ccc(-c3ccccc3)c2O1 (racemic) (as salt: hydrochloride) [Example 98, (±)-1-(4-fluoro-7-phenyl-2,3-dihydro-1-benzofuran-2-yl)methanamine]"
3,228 to 231 °C,"Cc1ccccc1-c1ccc(F)c2c1OC(CN)C2 (racemic) (as salt: hydrochloride) [Example 99, (±)-1-[4-fluoro-7-(2-methylphenyl)-2,3-dihydro-1-benzofuran-2-yl]methanamine]"
4,> 250 °C (dec.),"NCC1Cc2cc(F)cc(-c3ccccc3Cl)c2O1 (racemic) (as salt: hydrochloride) [Example 100, (±)-1-[7-(2-chlorophenyl)-5-fluoro-2,3-dihydro-1-benzofuran-2-yl]methanamine]"
5,255 to 260 °C,"NCC1Cc2cc(F)cc(-c3ccccc3)c2O1 (racemic) (as salt: hydrochloride) [Example 103, (±)-1-(5-fluoro-7-phenyl-2,3-dihydro-1-benzofuran-2-yl)methanamine]"
6,229 to 234 °C,"Cc1ccccc1-c1cc(F)cc2c1OC(CN)C2 (racemic) (as salt: hydrochloride) [Example 104, (±)-1-[5-fluoro-7-(2-methylphenyl)-2,3-dihydro-1-benzofuran-2-yl]methanamine]"
7,240 to 247 °C (dec.),"NCC1Cc2cc(F)cc(-c3ccccc3F)c2O1 (racemic) (as salt: hydrochloride) [Example 107, (±)-1-[5-fluoro-7-(2-fluorophenyl)-2,3-dihydro-1-benzofuran-2-yl]methanamine]"
8,196 to 198 °C (dec.),"NCC1Cc2cc(F)cc(-c3ccccc3C(F)(F)F)c2O1 (racemic) (as salt: hydrochloride) [Example 108, (±)-1-{5-fluoro-7-[2-(trifluoromethyl)phenyl]-2,3-dihydro-1-benzofuran-2-yl}methanamine]"
9,> 240 °C,"NCC1Cc2c(F)c(F)cc(-c3ccccc3)c2O1 (racemic) (as salt: hydrochloride) [Example 109, (±)-(4,5-difluoro-7-phenyl-2,3-dihydro-1-benzofuran-2-yl)methylamine]"
10,> 224 °C,"Cc1ccccc1-c1cc(F)c(F)c2c1OC(CN)C2 (racemic) (as salt: hydrochloride) [Example 110, (±)-1-[4,5-difluoro-7-(2-methylphenyl)-2,3-dihydro-1-benzofuran-2-yl]methanamine]"
11,195 to 198 °C,"COc1cc(Cl)cc2c1OC(CN)C2 (racemic) (as salt: hydrochloride) [Example 111, (±)-1-(5-chloro-7-methoxy-2,3-dihydro-1-benzofuran-2-yl)methanamine]"
12,222 to 225 °C,"CC1(CN)Cc2cc(Cl)cc(-c3ccccc3)c2O1 (racemic) (as salt: hydrochloride) [Example 112, (±)-1-(5-chloro-2-methyl-7-phenyl-2,3-dihydro-1-benzofuran-2-yl)methanamine]"
13,295 to 298 °C (dec.),"CC1(CN)Cc2cc(Cl)cc(-c3ccsc3)c2O1 (racemic) (as salt: hydrochloride) [Example 113, (±)-(5-chloro-2-methyl-7-thien-3-yl-2,3-dihydro-1-benzofuran-2-yl)methylamine]"
14,251 to 252 °C,"CC1(CN)Cc2cc(Cl)cc(-c3cccs3)c2O1 (racemic) (as salt: hydrochloride) [Example 114, (±)-(5-chloro-2-methyl-7-thien-2-yl-2,3-dihydro-1-benzofuran-2-yl)methylamine]"
15,216 to 218 °C,"CC(C)(C)/C=C/c1cccc2c1OC(CN)C2 (racemic) (as salt: hydrochloride) [Example 117, (±)-1-{7-[(1E)-3,3-dimethylbut-1-enyl]-2,3-dihydro-1-benzofuran-2-yl}methanamine]"
16,158 to 160 °C,"CC(C)(C)CCc1cccc2c1OC(CN)C2 (racemic) (as salt: hydrochloride) [Example 118, (±)-1-[7-(3,3-dimethylbutyl)-2,3-dihydro-1-benzofuran-2-yl]methanamine]"
17,209 to 211 °C,"NCC1Cc2cccc(/C=C/c3ccccc3)c2O1 (racemic) (as salt: hydrochloride) [Example 119, (±)-1-{7-[(E)-2-phenylvinyl]-2,3-dihydro-1-benzofuran-2-yl}methanamine]"
18,155 to 157 °C,"NCC1Cc2cccc(CCc3ccccc3)c2O1 (racemic) (as salt: hydrochloride) [Example 120, (±)-1-[7-(2-phenylethyl)-2,3-dihydro-1-benzofuran-2-yl]methanamine]"
19,239 to 241 °C,"Cc1ccc(-c2cccc3c2CC(CN)O3)cc1 (racemic) (as salt: hydrochloride) [Example 121, (±)-1-[4-(4-methylphenyl)-2,3-dihydro-1-benzofuran-2-yl]methanamine]"
20,213 to 215 °C,"NCC1Cc2c(cccc2-c2ccccc2C(F)(F)F)O1 (racemic) (as salt: hydrochloride) [Example 122, (±)-1-{4-[2-(trifluoromethyl)phenyl]-2,3-dihydro-1-benzofuran-2-yl}methanamine]"
21,254 to 256 °C,"Cc1cccc(C)c1-c1cccc2c1CC(CN)O2 (racemic) (as salt: hydrochloride) [Example 125, (±)-1-[4-(2,6-dimethylphenyl)-2,3-dihydro-1-benzofuran-2-yl]methanamine]"
22,219 to 222 °C,"NCC1Cc2cccc(-c3c(F)cccc3F)c2O1 (racemic) (as salt: hydrochloride) [Example 139, (±)-1-[7-(2,6-difluorophenyl)-2,3-dihydro-1-benzofuran-2-yl]methanamine]"
23,206 to 208 °C,"NCC1Cc2cccc(-c3c(Cl)cccc3Cl)c2O1 (racemic) (as salt: hydrochloride) [Example 140, (±)-1-[7-(2,6-dichlorophenyl)-2,3-dihydro-1-benzofuran-2-yl]methanamine]"
24,175 to 178 °C,"COc1ccc(-c2cccc3c2OC(CN)C3)c(OC)c1 (racemic) (as salt: hydrochloride) [Example 143, (±)-1-[7-(2,4-dimethoxyphenyl)-2,3-dihydro-1-benzofuran-2-yl]methanamine]"
25,222 to 224 °C,"NCC1Cc2cccc(-c3ccc(F)cc3F)c2O1 (racemic) (as salt: hydrochloride) [Example 146, (±)-1-[7-(2,4-difluorophenyl)-2,3-dihydro-1-benzofuran-2-yl]methanamine]"
26,> 225 °C,"Cc1cccc(-c2cccc3c2OC(CN)C3)c1C (racemic) (as salt: hydrochloride) [Example 154, (±)-1-[7-(2,3-dimethylphenyl)-2,3-dihydro-1-benzofuran-2-yl]methanamine]"
27,> 225 °C,"NCC1Cc2cccc(-c3c(Cl)cc(Cl)cc3Cl)c2O1 (racemic) (as salt: hydrochloride) [Example 166, (±)-{[7-(2,4,6-trichlorophenyl)-2,3-dihydro-1-benzofuran-2-yl]methyl}amine]"
